# Measured values reported in US20100317863A1, “Glucocorticoid Mimetics, Methods of Making Them, Pharmaceutical Compositions and Uses Thereof” (BOEHRINGER INGELHEIM INTERNATIONAL GMBH, priority 2007, published 2010).
# pIC50: −log10 of the molar value.
# Target: T1, human glucocorticoid receptor (GR) complex (Homo sapiens, UniProt P04150)
# T1 construct: made in house; host or cells: insect expression system (baculovirus lysate)
# T1 sequence (P04150 1-777): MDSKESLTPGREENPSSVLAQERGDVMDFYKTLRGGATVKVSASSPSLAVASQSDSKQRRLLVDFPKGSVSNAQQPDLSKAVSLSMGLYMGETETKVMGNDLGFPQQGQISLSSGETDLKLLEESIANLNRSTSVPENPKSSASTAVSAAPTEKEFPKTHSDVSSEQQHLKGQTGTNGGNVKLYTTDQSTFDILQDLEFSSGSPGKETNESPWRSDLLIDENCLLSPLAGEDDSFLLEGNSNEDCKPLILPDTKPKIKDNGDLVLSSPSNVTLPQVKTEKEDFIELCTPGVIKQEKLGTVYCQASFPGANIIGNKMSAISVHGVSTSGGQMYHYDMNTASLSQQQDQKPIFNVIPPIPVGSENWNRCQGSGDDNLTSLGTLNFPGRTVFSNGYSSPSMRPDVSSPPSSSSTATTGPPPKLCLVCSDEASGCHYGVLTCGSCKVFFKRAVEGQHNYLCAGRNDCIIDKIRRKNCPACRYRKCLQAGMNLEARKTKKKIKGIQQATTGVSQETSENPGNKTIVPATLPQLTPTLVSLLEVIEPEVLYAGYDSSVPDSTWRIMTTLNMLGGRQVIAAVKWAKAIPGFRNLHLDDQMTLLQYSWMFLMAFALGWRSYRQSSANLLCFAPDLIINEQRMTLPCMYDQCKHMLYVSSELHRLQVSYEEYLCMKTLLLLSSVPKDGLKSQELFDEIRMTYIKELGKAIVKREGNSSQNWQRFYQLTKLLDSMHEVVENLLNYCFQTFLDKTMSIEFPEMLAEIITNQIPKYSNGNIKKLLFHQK
# Assay: Glucocorticoid Receptor Competitive Binding Assay (fluorescence polarization)
# Conditions: competition with TAMRA-labeled dexamethasone; potent activity
# Experimental: Compounds of the invention were evaluated for binding to the steroid receptor by a fluorescence polarization competitive binding assay. Detailed descriptions for preparation of recombinant glucocorticoid receptor (GR) complex used in the assay is described in U.S. Patent Application Publication No. US 2003/0017503, filed May 20, 2002, and incorporated herein by reference in its entirety. Preparation of the tetramethylrhodamine (TAMRA)-labeled dexamethasone probe was accomplished using a standard literature procedure (M. Pons et al., J. Steroid Biochem., 1985, 22, pp. 267-273).
# This assay uses fluorescence polarization (FP) to quantitate the ability of test compounds to compete with tetramethylrhodamine (TAMRA)-labeled dexamethasone for binding to a human glucocorticoid receptor (GR) complex prepared from an insect expression system. The assay buffer was: 10 mM TES, 50 mM KCl, 20 mM Na2MoO4.2H2O, 1.5 mM EDTA, 0.04% w/v CHAPS, 10% v/v glycerol, 1 mM dithiothreitol, pH 7.4. Test compounds were dissolved to 1 mM in neat DMSO and then further diluted to 10× assay concentration in assay buffer supplemented with 10% v/v DMSO. Test compounds were serially diluted at 10× assay concentrations in 10% DMSO-containing buffer in 96-well polypropylene plates. Binding reaction mixtures were prepared in 96-well black Dynex microtiter plates by sequential addition of the following assay components to each well: 15 μL of 10× test compound solution, 85 μL of GR-containing baculovirus lysate diluted 1:170 in assay buffer, and 50 μL of 15 nM TAMRA-labeled dexamethasone. Positive controls were reaction mixtures containing no test compound; negative controls (blanks) were reaction mixtures containing 0.7 μM to 2 μM dexamethasone. The binding reactions were incubated for 1 hour at room temperature and then read for fluorescence polarization in the LJL Analyst set to 550 nm excitation and 580 nm emission, with the Rhodamine 561 dichroic mirror installed. IC50 values were determined by iterative non-linear curve fitting of the FP signal data to a 4-parameter logistic equation.
row,Compound,pIC50
1,"Cc1cc(C)c(S(=O)(=O)NC(Cn2cc(C)c3ccccc32)C(C)C)c([N+](=O)[O-])c1 (stereo not shown) [2,4-Dimethyl-N-[2-methyl-1-(3-methylindol-1-ylmethyl)propyl]-6-nitrobenzenesulfonamide]",≥ 7.00
2,"CC[C@@H](Cn1cc(C)c2ccccc21)NS(=O)(=O)c1c(C)cc(C)cc1[N+](=O)[O-] [2,4-Dimethyl-N—[(S)-1-(3-methylindol-1-ylmethyl)propyl]-6-nitrobenzenesulfonamide]",≥ 7.00
3,"Cc1cc(C)c(S(=O)(=O)N[C@@H](C)Cn2cc(C)c3ccccc32)c([N+](=O)[O-])c1 [2,4-Dimethyl-N—[(S)-1-methyl-2-(3-methylindol-1-yl)-ethyl]-6-nitrobenzenesulfonamide]",≥ 7.00
4,"CC(C)C(Cn1ccc2ccccc21)NS(=O)(=O)c1c(N)cc(Cl)cc1Cl (stereo not shown) [2-Amino-4,6-dichloro-N-(1-indol-1-ylmethyl-2-methylpropyl)benzenesulfonamide]",≥ 7.00
5,"CCC(Cn1cc(C)c2ccccc21)NS(=O)(=O)c1c(N)cc(Cl)cc1Cl (stereo not shown) [2-Amino-4,6-dichloro-N-[1-(3-methylindol-1-ylmethyl)propyl]benzenesulfonamide]",≥ 7.00
6,"Cc1cn(CC(NS(=O)(=O)c2c(N)cc(Cl)cc2Cl)C(C)C)c2ccccc12 (stereo not shown) [2-Amino-4,6-dichloro-N-[2-methyl-1-(3-methylindol-1-ylmethyl)propyl]benzenesulfonamide]",≥ 7.00
7,"CC[C@@H](Cn1ccc2ccccc21)NS(=O)(=O)c1c(N)cc(Cl)cc1Cl [2-Amino-4,6-dichloro-N—((S)-1-indol-1-ylmethylpropyl)benzenesulfonamide]",≥ 7.00
8,"CC(C)[C@@H](Cn1cc(C#N)c2ccccc21)NS(=O)(=O)c1c(N)cc(Cl)cc1Cl [2-Amino-4,6-dichloro-N—[(S)-1-(3-cyanoindol-1-ylmethyl)-2-methylpropyl]benzenesulfonamide]",≥ 7.00
9,"CC[C@@H](Cn1cc(C#N)c2ccccc21)NS(=O)(=O)c1c(N)cc(Cl)cc1Cl [2-Amino-4,6-dichloro-N—[(S)-1-(3-cyanoindol-1-ylmethyl)propyl]benzenesulfonamide]",≥ 7.00
10,"CC[C@@H](Cn1cc(C)c2ccccc21)NS(=O)(=O)c1c(N)cc(Cl)cc1Cl [2-Amino-4,6-dichloro-N—[(S)-1-(3-methylindol-1-ylmethyl)propyl]benzenesulfonamide]",≥ 7.00
11,"CC[C@@H](Cn1cc(-c2ccccc2)c2ccccc21)NS(=O)(=O)c1c(N)cc(Cl)cc1Cl [2-Amino-4,6-dichloro-N—[(S)-1-(3-phenylindol-1-ylmethyl)propyl]benzenesulfonamide]",≥ 7.00
12,"Cc1cn(C[C@@H](NS(=O)(=O)c2c(N)cc(Cl)cc2Cl)C(C)C)c2ccccc12 [2-Amino-4,6-dichloro-N—[(S)-2-methyl-1-(3-methylindol-1-ylmethyl)propyl]benzenesulfonamide]",≥ 7.00
13,"CC[C@@H](Cn1cc(C)c2ccccc21)NS(=O)(=O)c1c(C)cc(C)cc1N [2-Amino-4,6-dimethyl-N—[(S)-1-(3-methylindol-1-ylmethyl)propyl]benzenesulfonamide]",≥ 7.00
14,"Cc1cc(C)c(S(=O)(=O)N[C@H](Cn2cc(C)c3ccccc32)C(C)C)c(N)c1 [2-Amino-4,6-dimethyl-N—[(S)-2-methyl-1-(3-methylindol-1-ylmethyl)propyl]benzenesulfonamide]",≥ 7.00
15,"CC[C@@H](Cn1cc(C#N)c2cc(F)ccc21)NS(=O)(=O)c1c(C)cc(C)cc1N [2-Amino-N—[(S)-1-(3-cyano-5-fluoroindol-1-ylmethyl)propyl]-4,6-dimethylbenzenesulfonamide]",≥ 7.00
16,"CC[C@@H](Cn1cc(C#N)c2cccc(F)c21)N(C)S(=O)(=O)c1c(C)cc(C)cc1N [2-Amino-N—[(S)-1-(3-cyano-7-fluoroindol-1-ylmethyl)propyl]-4,6,N-trimethylbenzenesulfonamide]",≥ 7.00
17,"Cc1cc(C)c(S(=O)(=O)N[C@H](Cn2cc(C#N)c3ccccc32)C(C)C)c(N)c1 [2-Amino-N—[(S)-1-(3-cyanoindol-1-ylmethyl)-2-methylpropyl]-4,6-dimethylbenzenesulfonamide]",≥ 7.00
18,"CC[C@@H](Cn1cc(CC#N)c2ccccc21)NS(=O)(=O)c1c(C)cc(C)cc1N [2-Amino-N—[(S)-1-(3-cyanomethylindol-1-ylmethyl)propyl]-4,6-dimethylbenzenesulfonamide]",≥ 7.00
19,"CC[C@@H](Cn1cc(C)c2cccc(F)c21)NS(=O)(=O)c1c(C)cc(C)cc1N [2-Amino-N—[(S)-1-(7-fluoro-3-methylindol-1-ylmethyl)propyl]-4,6-dimethylbenzenesulfonamide]",≥ 7.00
20,"Cc1cc(C)c(S(=O)(=O)N[C@@H](C)Cn2cc(C#N)c3cc(F)ccc32)c(N)c1 [2-Amino-N—[(S)-2-(3-cyano-5-fluoroindol-1-yl)-1-methylethyl]-4,6-dimethylbenzenesulfonamide]",≥ 7.00

# The next lines start with the values.
row,pIC50,Compound
1,≥ 7.00,"CC[C@@H](Cn1ccc2cc(C(=O)OC)ccc21)NS(=O)(=O)c1c(C)cc(C)cc1C [1-[(S)-2-(2,4,6-Trimethylbenzenesulfonylamino)butyl]-1H-indole-5-carboxylic acid methyl ester]"
2,≥ 7.00,"CC[C@@H](Cn1cc(C(N)=O)c2cc(F)ccc21)NS(=O)(=O)c1c(Cl)cc(Br)cc1Cl [1-[(S)-2-(4-Bromo-2,6-dichlorobenzenesulfonylamino)butyl]-5-fluoro-1H-indole-3-carboxylic acid amide]"
3,≥ 7.00,"CCC(Cn1cc(C)c2ccccc21)NS(=O)(=O)c1c(Cl)cc(Cl)cc1Cl (stereo not shown) [2,4,6-Trichloro-N-[1-(3-methylindol-1-ylmethyl)propyl]benzenesulfonamide]"
4,≥ 7.00,"Cc1ccc2c(c1)CCCN2CC(NS(=O)(=O)c1c(Cl)cc(Cl)cc1Cl)C(C)C (stereo not shown) [2,4,6-Trichloro-N-[2-methyl-1-(6-methyl-3,4-dihydro-2H-quinolin-1-ylmethyl)propyl]benzenesulfonamide]"
5,≥ 7.00,"CCC(Cn1cc(C)c2ccccc21)NS(=O)(=O)c1c(C)cc(C)cc1C (stereo not shown) [2,4,6-Trimethyl-N-[1-(3-methylindol-1-ylmethyl)propyl]benzenesulfonamide]"
6,≥ 7.00,"CC[C@@H](Cc1cccc2c1ccn2C)NS(=O)(=O)c1c(C)cc(C)cc1C [2,4,6-Trimethyl-N—[(S)-1-(1-methyl-1H-indol-4-ylmethyl)propyl]benzenesulfonamide]"
7,≥ 7.00,"CC[C@@H](Cc1ccc2ccn(C)c2c1)NS(=O)(=O)c1c(C)cc(C)cc1C [2,4,6-Trimethyl-N—[(S)-1-(1-methyl-1H-indol-6-ylmethyl)propyl]benzenesulfonamide]"
8,≥ 7.00,"CC[C@@H](Cc1cccc2ccn(C)c12)NS(=O)(=O)c1c(C)cc(C)cc1C [2,4,6-Trimethyl-N—[(S)-1-(1-methyl-1H-indol-7-ylmethyl)propyl]benzenesulfonamide]"
9,≥ 7.00,"CC[C@@H](Cn1cc(C)c2ccccc21)NS(=O)(=O)c1c(C)cc(C)cc1C [2,4,6-Trimethyl-N—[(S)-1-(3-methylindol-1-ylmethyl)propyl]benzenesulfonamide]"
10,≥ 7.00,"CC[C@@H](Cn1cc(-c2ccc(C)cc2)c2ccccc21)NS(=O)(=O)c1c(C)cc(C)cc1C [2,4,6-Trimethyl-N—[(S)-1-(3-p-tolylindol-1-ylmethyl)propyl]benzenesulfonamide]"
11,≥ 7.00,"CC[C@@H](Cn1cc(-c2cccnc2)c2ccccc21)NS(=O)(=O)c1c(C)cc(C)cc1C [2,4,6-Trimethyl-N—[(S)-1-(3-pyridin-3-ylindol-1-ylmethyl)propyl]benzenesulfonamide]"
